Our source for the IC50 values is patent US10597380B2, “Pyridazinone-based broad spectrum anti-influenza inhibitors” (Hoffmann-La Roche Inc., priority 2017, dated 2020).

The assay deals with Influenza A/WSN/33-Luciferase virus. The assay is described as follows: microbe, parasite or virus in culture. It is filed as cell-based. The settings on record: A549, 72 h, luciferase signal three days later, read-out: IC50 antiviral activity (Luciferase reporter assay).

SMILES strings stand for the structures.

As for `Cn1cccc(Nc2nn(-c3ccc(C(F)(F)F)cc3F)c(=O)c3c2CCC3)c1=O` [Example 54, 3-[2-fluoro-4-(trifluoromethyl)phenyl]-1-[(1-methyl-2-oxo-3-pyridyl)amino]-6,7-dihydro-5H-cyclopenta[d]pyridazin-4-one], the IC50 was 52 nM.

For `NS(=O)(=O)CCCn1cccc(Nc2nn(-c3ccc(OC(F)(F)F)cc3)c(=O)c3ccccc23)c1=O` [Example 74, 3-[2-oxo-3-[[4-oxo-3-[4-(trifluoromethoxy)phenyl]phthalazin-1-yl]amino]-1-pyridyl]propane-1-sulfonamide], the IC50 was found to be 34 nM. Turning to `O=C(O)CCCn1cncc(Nc2nn(-c3ccc(OC(F)(F)F)cc3)c(=O)c3c2CCC3)c1=O` [Example 124, 4-[6-oxo-5-[[4-oxo-3-[4-(trifluoromethoxy)phenyl]-6,7-dihydro-5H-cyclopenta[d]pyridazin-1-yl]amino]pyrimidin-1-yl]butanoic acid], the IC50 is 4930 nM. For `O=C(O)CCCn1cccc(Nc2nn(-c3ccc(OC(F)(F)F)cc3)c(=O)c3ccccc23)c1=O` [Example 110, 4-[2-oxo-3-[[4-oxo-3-[4-(trifluoromethoxy)phenyl]phthalazin-1-yl]amino]-1-pyridyl]butanoic acid], the IC50 was determined as 482 nM. For `O=C(O)[C@@H]1CCCN1CCn1cccc(Nc2nn(-c3ccc(OC(F)(F)F)cc3)c(=O)c3ccccc23)c1=O` [Example 115, (2S)-1-[2-[2-oxo-3-[[4-oxo-3-[4-(trifluoromethoxy)phenyl]phthalazin-1-yl]amino]-1-pyridyl]ethyl]pyrrolidine-2-carboxylic acid], the IC50 amounted to 180 nM. With `C=Cc1ccc2c(=O)n(-c3ccc(OC(F)(F)F)cc3)nc(Nc3cccn(C)c3=O)c2c1` [Example 83, 4-[(1-methyl-2-oxo-3-pyridyl)amino]-2-[4-(trifluoromethoxy)phenyl]-6-vinyl-phthalazin-1-one], the IC50 was 1490 nM. Take `COCCOc1ccc2c(Nc3cccn(C)c3=O)nn(-c3ccc(OC(F)(F)F)cc3)c(=O)c2c1` [Example 137, 7-(2-Methoxyethoxy)-4-[(1-methyl-2-oxo-3-pyridyl)amino]-2-[4-(trifluoromethoxy)phenyl]phthalazin-1-one]: the IC50 turned out to be 136 nM. The result for `O=C(O)C1CCCN1CCn1cccc(Nc2nn(-c3ccc(OC(F)(F)F)cc3)c(=O)c3c2CCC3)c1=O` (centres unmarked) [Example 121, 1-[2-[2-oxo-3-[[4-oxo-3-[4-(trifluoromethoxy)phenyl]-6,7-dihydro-5H-1-yl]amino]-1-pyridyl]ethyl]pyrrolidine-2-carboxylic acid] reads 156 nM; that for `Cc1ccc(Nc2nn(-c3ccc(OC(F)(F)F)cc3)c(=O)c3ccccc23)c(=O)[nH]1` [Example 68, 4-[(6-methyl-2-oxo-1H-pyridin-3-yl)amino]-2-[4-(trifluoromethoxy)phenyl]phthalazin-1-one], 1710 nM. As for `CNC(=O)CCn1cccc(Nc2nn(-c3ccc(OC(F)(F)F)cc3)c(=O)c3ccccc23)c1=O` [Example 95, N-methyl-3-[2-oxo-3-[[4-oxo-3-[4-(trifluoromethoxy)phenyl]phthalazin-1-yl]amino]-1-pyridyl]propanamide], the IC50 came out at 102 nM. Consider `CNC(=O)c1cc(Nc2nn(-c3ccc(OC(F)(F)F)cc3)c(=O)c3ccccc23)c(=O)n(C)c1` [Example 175, N,1-Dimethyl-6-oxo-5-[[4-oxo-3-[4-(trifluoromethoxy)phenyl]phthalazin-1-yl]amino]pyridine-3-carboxamide], for which the IC50 was found to be 74400 nM. Turning to `CN(CCn1cccc(Nc2nn(-c3ccc(OC(F)(F)F)cc3)c(=O)c3ccccc23)c1=O)CC(=O)O` [Example 113, 2-[methyl-[2-[2-oxo-3-[[4-oxo-3-[4-(trifluoromethoxy)phenyl]phthalazin-1-yl]amino]-1-pyridyl]ethyl]amino]acetic acid], the IC50 worked out at 161 nM.

Regarding `O=C(Cn1cccc(Nc2nn(-c3ccc(OC(F)(F)F)cc3)c(=O)c3ccccc23)c1=O)NCCO` [Example 92, N-(2-hydroxyethyl)-2-[2-oxo-3-[[4-oxo-3-[4-(trifluoromethoxy)phenyl]phthalazin-1-yl]amino]-1-pyridyl]acetamide], the IC50 is 178 nM. In the case of `Cn1cccc(Nc2nn(-c3ccc(OC(F)(F)F)cc3)c(=O)c3c2CN(S(C)(=O)=O)CC3)c1=O` [Example 157, 4-[(1-Methyl-2-oxo-3-pyridyl)amino]-6-methylsulfonyl-2-[4-(trifluoromethoxy)phenyl]-7,8-dihydro-5H-pyrido[3,4-d]pyridazin-1-one], the 50% inhibitory concentration (IC50) was determined as 167 nM. With `CC(C)NC(=O)Cn1cccc(Nc2nn(-c3ccc(OC(F)(F)F)cc3)c(=O)c3ccccc23)c1=O` [Example 90, N-isopropyl-2-[2-oxo-3-[[4-oxo-3-[4-(trifluoromethoxy)phenyl]phthalazin-1-yl]amino]-1-pyridyl]acetamide], the IC50 was 162 nM.

As to `Cn1cc(C(F)(F)F)cc(Nc2nn(-c3ccc(OC(F)(F)F)cc3)c(=O)c3ccccc23)c1=O` [Example 176, 4-[[1-methyl-2-oxo-5-(trifluoromethyl)-3-pyridyl]amino]-2-[4-(trifluoromethoxy)phenyl]phthalazin-1-one], the IC50 stood at 80500 nM. `CCOC(=O)COCCn1cccc(Nc2nn(-c3ccc(OC(F)(F)F)cc3)c(=O)c3c2CCC3)c1=O` [Example 39, ethyl 2-[2-[2-oxo-3-[[4-oxo-3-[4-(trifluoromethoxy)phenyl]-6,7-dihydro-5H-cyclopenta[d]pyridazin-1-yl]amino]-1-pyridyl]ethoxy]acetate]: the IC50 amounted to 230 nM. `O=C(O)CCCn1cccc(Nc2nn(-c3ccc(OC(F)(F)F)cc3)c(=O)c3c2CCC3)c1=O` [Example 118, 4-[2-oxo-3-[[4-oxo-3-[4-(trifluoromethoxy)phenyl]-6,7-dihydro-5H-cyclopenta[d]pyridazin-1-yl]amino]-1-pyridyl]butanoic acid]: the IC50 worked out at 953 nM.

On to `COc1cc(-n2nc(Nc3cccn(C)c3=O)c3c(c2=O)CCC3)ccc1C(F)(F)F` [Example 173, 3-[3-Methoxy-4-(trifluoromethyl)phenyl]-1-[(1-methyl-2-oxo-3-pyridyl)amino]-6,7-dihydro-5H-cyclopenta[d]pyridazin-4-one], for which the IC50 came out at 74600 nM. With `Cn1cccc(Nc2nn(-c3ccc(OC(F)(F)F)cc3)c(=O)c3cc(CN)ccc23)c1=O` [Example 143, 7-(Aminomethyl)-4-[(1-methyl-2-oxo-3-pyridyl)amino]-2-[4-(trifluoromethoxy)phenyl]phthalazin-1-one], the IC50 worked out at 271 nM. The result for `CCN1CCc2c(Nc3cccn(C)c3=O)nn(-c3ccc(OC(F)(F)F)cc3)c(=O)c2C1` [Example 158, 6-Ethyl-1-[(1-methyl-2-oxo-3-pyridyl)amino]-3-[4-(trifluoromethoxy)phenyl]-7,8-dihydro-5H-pyrido[3,4-d]pyridazin-4-one] reads 105 nM. As to `CC(C)c1cc(Nc2nn(-c3ccc(OC(F)(F)F)cc3)c(=O)c3c2CCC3)c(=O)n(C)c1` [Example 36, 1-[(5-isopropyl-1-methyl-2-oxo-3-pyridyl)amino]-3-[4-(trifluoromethoxy)phenyl]-6,7-dihydro-5H-cyclopenta[d]pyridazin-4-one], the IC50 stood at 579 nM. For `O=C(O)C1CCCN1CCn1cccc(Nc2nn(-c3ccc(OC(F)(F)F)cc3)c(=O)c3ccccc23)c1=O` (centres unmarked) [Example 114, 1-[2-[2-oxo-3-[[4-oxo-3-[4-(trifluoromethoxy)phenyl]phthalazin-1-yl]amino]-1-pyridyl]ethyl]pyrrolidine-2-carboxylic acid], the IC50 worked out at 110 nM. The result for `COC(=O)c1cc(Nc2nn(-c3ccc(OC(F)(F)F)cc3)c(=O)c3c2CCCC3)c(=O)n(C)c1` [Example 23, methyl 1-methyl-6-oxo-5-[[4-oxo-3-[4-(trifluoromethoxy)phenyl]-5,6,7,8-tetrahydrophthalazin-1-yl]amino]pyridine-3-carboxylate] reads 712 nM; that for `Cn1cccc(Nc2nn(-c3ccc(C4CC4)cc3)c(=O)c3ccccc23)c1=O` [Example 12, 2-(4-cyclopropylphenyl)-4-[(1-methyl-2-oxo-3-pyridyl)amino]phthalazin-1-one], 407 nM; that for `CNC(=O)c1cc(Nc2nn(-c3ccc(OC(F)(F)F)cc3)c(=O)c3c2CCCC3)c(=O)n(C)c1` [Example 174, N,1-Dimethyl-6-oxo-5-[[4-oxo-3-[4-(trifluoromethoxy)phenyl]-5,6,7,8-tetrahydrophthalazin-1-yl]amino]pyridine-3-carboxamide], 14600 nM.

For the molecule `COc1cccc2c(=O)n(-c3ccc(OC(F)(F)F)cc3)nc(Nc3cccn(C)c3=O)c12` [Example 19, 5-methoxy-4-[(1-methyl-2-oxo-3-pyridyl)amino]-2-[4-(trifluoromethoxy)phenyl]phthalazin-1-one], the IC50 was found to be 59500 nM. For the molecule `O=C(O)CCn1cccc(Nc2nn(-c3ccc(OC(F)(F)F)cc3)c(=O)c3ccccc23)c1=O` [Example 109, 3-[2-Oxo-3-[[4-oxo-3-[4-(trifluoromethoxy)phenyl]phthalazin-1-yl]amino]-1-pyridyl]propanoic acid], the IC50 came to 842 nM.

As for `O=c1c(Nc2nn(-c3ccc(OC(F)(F)F)cc3)c(=O)c3ccccc23)cccn1CCN1CC(O)(C(F)(F)F)C1` [Example 77, 4-[[1-[2-[3-hydroxy-3-(trifluoromethyl)azetidin-1-yl]ethyl]-2-oxo-3-pyridyl]amino]-2-[4-(trifluoromethoxy)phenyl]phthalazin-1-one], the IC50 came out at 108 nM. As to `Cn1cccc(Nc2nn(-c3ccc(OC(F)(F)F)cc3)c(=O)c3c2CCN(CCO)C3)c1=O` [Example 147, 6-(2-Hydroxyethyl)-1-[(1-methyl-2-oxo-3-pyridyl)amino]-3-[4-(trifluoromethoxy)phenyl]-7,8-dihydro-5H-pyrido[3,4-d]pyridazin-4-one], the IC50 worked out at 76 nM. The result for `Cn1cccc(Nc2nn(-c3ccc(OC(F)F)cc3)c(=O)c3c2CCC3)c1=O` [Example 59, 3-[4-(difluoromethoxy)phenyl]-1-[(1-methyl-2-oxo-3-pyridyl)amino]-6,7-dihydro-5H-cyclopenta[d]pyridazin-4-one] reads 137 nM; that for `COC(=O)Cn1cccc(Nc2nn(-c3ccc(OC(F)(F)F)cc3)c(=O)c3ccccc23)c1=O` [Example 3, methyl 2-[2-oxo-3-[[4-oxo-3-[4-(trifluoromethoxy)phenyl]phthalazin-1-yl]amino]-1-pyridyl]acetate], 38 nM.
